# Measurements as given in patent US20060100264A1, “3,3'-Diindolylmethane immune activating compositions” (priority 2004, published 2006).
# Experiments:
# [1] = tested on: IFNγ; assay: IFNγ mRNA expression in DIM-treated MCF-7 cells (cDNA microarray, Northern blot, quantitative RT-PCR); assay type: cell-based, human
# Experimental: (§1) Immune response activating effects of the DIM analogs are examined with cell-based assays for cytokine and cytokine receptor expression. […] We also used a sensitive sandwich ELISA assay to examine levels of IFNγ in medium from confluent cultures of MCF-7 cells that were treated for up to 3 days. DIM derivatives confirmed to have immune response activating activity in our reporter and ELISA assays are subsequently screened in a whole animal cytokine production and Y. enterocolitica infection studies, as described below in Examples VIII and IX.
# (§2) An initial cDNA gene expression microarray screen of human breast cancer MCF-7 cells treated with DIM, followed by confirmation of results using Northern blots and quantitative RT-PCR, established the transcriptional activation of IFNγ, IFNγ receptor (IFNGR1), oligoadenylate-synthase (OAS) family member protein 69 (p69-OAS), and interferon-inducible protein 56 (p56), a protein closely related to OAS. […] Maximum induction for IFNγ, IFNGR1, p69-OAS and p56 were 4.6, 3.8, 3.2 and 4.0 fold, respectively.
# [2] = tested on: interferon-inducible protein 56 (p56); assay: p56 mRNA expression in DIM-treated MCF-7 cells (cDNA microarray, Northern blot, quantitative RT-PCR); assay type: cell-based, human
# Experimental: as §1, §2
# [3] = tested on: IFNGR1 protein; assay: Western blot analysis of IFNGR1 protein; assay type: cell-based, human
# Experimental: IFNGR1 protein levels increased by approximately 7 fold after 24 h and persisted to 48 h compared to DMSO-treated controls.
# Comparison of our results with DIM to our studies with I3C (27) show some distinct differences in the activity of DIM and its in vivo precursor in their effects on IFNγ signaling. […] Similar effects of DIM and I3C were also observed on cell proliferation and cell cycling. […] Thus, a strong level of induction (about 5 fold) was seen after only 6 hours of exposure to DIM, and the maximum induction was attained by 24 hours of treatment with this diindole. In contrast, receptor expression was increased by only about 3 fold following 24 hours of treatment with I3C, and appeared to reach the maximum induction only after about 48 hours of exposure. […] Indeed, we have shown previously that DIM accumulates in the nucleus of MCF-7 cultured cells treated with I3C (28).
# [4] = tested on: 4GAS-Luc reporter (four repeats of the consensus GAS element); assay: 4GAS-Luc luciferase reporter in transiently transfected MCF-7 cells; assay type: cell-based, human; details: DIM 50 μM, IFNγ concentration dependent, maximum
# Experimental: In a further experiment to examine whether the inducing effects of DIM are at the transcriptional level, the effect of DIM on activities of two luciferase reporter constructs, OAS-Luc (12) and 4GAS-Luc (13) was examined. OAS-Luc contains the promoter and 5′-flanking region (−972) of p69-OAS and GAS-Luc contains four repeats of the consensus GAS element. MCF-7 cells transiently transfected with these reporter constructs were treated with IFNγ, DIM, or a combination of both for 24 h. […] IFNγ induced transcriptional activity of this reporter in a concentration dependent manner to a maximum of about 1.8 fold, which is less than the response of the endogenous gene of about 5.0 fold. In marked contrast to the maximum effects of combined treatments of the inducers on endogenous gene expression (nearly 12-fold increase compared to vehicle treated cells), the reporter gene construct responded with less than a 3-fold increase over the controls.
# Thus, treatment with DIM (50 μM) by itself again produced a 2 to 3-fold increase in activity of this reporter. IFNγ treatments, however, produced a robust concentration dependent increase in reporter activity to approximately 40-fold induction compared to vehicle treated controls. […]
# [5] = tested on: MCF-7 cells; assay: Flow cytometry of cell cycling (G1 phase); assay type: cell-based, human; details: up to 3 days; control approximately 50% in G1
# Description: Flow cytometry was used to determine the effects of DIM and IFNγ on cell cycling. […] In control groups approximately 50% of the cells were in G1. Treatment with IFNγ alone caused a small progressive increase in G1 blocked cells of up to 10% above the DMSO control, after 3 days.
# [6] = tested on: MHC-II; assay: MHC-II expression in MCF-7 cells; assay type: cell-based, human
# Description: In an analogous further experiment, we observed no effect of DIM or IFNγ on MHC-II expression in the MCF-7 cells.
# [7] = tested on: G-CSF; assay: Serum G-CSF by ELISA in mice after DIM; assay type: in vivo; details: 30 μg/kg DIM orally
# Experimental: We firstly investigated the effect of unsubstituted DIM on the production of IL-6, G-CSF, IL-12, TNF-α and IFNγ. A groups of 3 mice was given 30 μg/kg of unsubstituted DIM orally and then sacrificed at 1, 3, 5, 8, and 24 h after drug challenge. Serum was collected, pooled, and assayed for IL-6, G-CSF, IL-12 and TNF-α by ELISA. […] DIM produced an increase in circulating levels of G-CSF and TNF-α with the 3 h time point being maximal. […] DIM also stimulated IL-12 and kinetics were slightly different since the increased levels were sustained for at least 24 h.
# [8] = tested on: Y. enterocolitica WA-314 serotype O:8; assay: Y. enterocolitica infection of BALB/c mice, spleen bacterial numbers; assay type: in vivo
# Experimental: Female, 6- to 8-week-old BALB/c mice are purchased from Charles River and kept under specific-pathogen-free conditions (positive-pressure cabinet).
# Mice are given 30 μg/kg/day of a DIM or one of 24 substituted DIM compounds (Table 1, supra) orally, starting at 1 day prior to infection.
# Freshly thawed, plasmid-harboring Y. enterocolitica WA-314 serotype O:8 organisms suspended in 0.1 ml of sterile phosphate-buffered saline (PBS), pH 7.4, are used for intravenous and oral infection as described previously (Autenrieth, et al. 1994. Infect. Immun. 62:2590-2599). The actual number of bacteria administered is determined by plating serial dilutions of the inoculum on Mueller-Hinton agar and counting CFU after an incubation period of 36 h at 26C. For kinetic studies, five mice per group are killed by carbon dioxide asphyxiation on days 1, 3, and 7 postinfection (p.i.) with 5×10^3 bacteria. Spleens are aseptically removed, and single-cell suspensions prepared by using 5 ml of PBS containing 0.1% bovine serum albumin. Duplicates of 0.1 ml of serial dilutions of these preparations are plated on Mueller-Hinton agar. The limit of detectable CFU is 25 (log1025=1.4).
# In single end-point studies, bacterial numbers in spleens of treated BALB/c mice 7 days p.i. with 2×10^3 Y. enterocolitica show significant reductions compared with untreated controls.
smiles,measurement,setting,value
"c1ccc2c(Cc3c[nH]c4ccccc34)c[nH]c2c1 [DIM, 3,3′-Diindolylmethane]",Maximum induction of IFNγ mRNA,[1]; MCF-7 cells treated with DIM,4.6 fold
same,Treatment time at which IFNγ expression was fully induced,[1]; MCF-7 cells treated with DIM,6 h
same,IFNγ mRNA level following 48 h of DIM treatment,"[1]; MCF-7 cells, 48 h",returned to near control levels
same,Maximum induction of p56 mRNA,[2]; MCF-7 cells treated with DIM,4.0 fold
same,Treatment time at which p56 expression was fully induced,[2]; MCF-7 cells treated with DIM,6 h
same,p56 mRNA level following 48 h of DIM treatment,"[2]; MCF-7 cells, 48 h",returned to near control levels
same,Maximum level of IFNGR1 protein induction,[3]; DIM,about 7 fold
same,Time at which maximum IFNGR1 protein induction was attained,[3]; DIM,≤ 24 h
same,IFNGR1 protein induction,[3]; after 6 hours of exposure to DIM,about 5 fold
same,IFNGR1 protein level increase compared to DMSO-treated controls,"[3]; after 24 h of DIM, persisted to 48 h",approximately 7 fold
same,Induction of 4GAS-Luc reporter activity compared to vehicle treated controls,[4],2 to 3 fold
same,Increase in G1 blocked cells above the DMSO control,[5],up to 30%
same,Effect on MHC-II expression,[6],no effect
same,Time point of maximal circulating G-CSF,[7],3 h
same,Severity of yersiniae infection,[8],reduce the severity of yersiniae infection
